Experimental data from paper PMC7572767 (Psychopharmacology, 2020).

Target: norepinephrine transporter (NET) (Homo sapiens, UniProt P23975)
Assay: fluorescent substrate uptake inhibition in HEK293 cells stably expressing NET
Format: cell-based

norepinephrine transporter (NET), sequence (P23975 whole entry): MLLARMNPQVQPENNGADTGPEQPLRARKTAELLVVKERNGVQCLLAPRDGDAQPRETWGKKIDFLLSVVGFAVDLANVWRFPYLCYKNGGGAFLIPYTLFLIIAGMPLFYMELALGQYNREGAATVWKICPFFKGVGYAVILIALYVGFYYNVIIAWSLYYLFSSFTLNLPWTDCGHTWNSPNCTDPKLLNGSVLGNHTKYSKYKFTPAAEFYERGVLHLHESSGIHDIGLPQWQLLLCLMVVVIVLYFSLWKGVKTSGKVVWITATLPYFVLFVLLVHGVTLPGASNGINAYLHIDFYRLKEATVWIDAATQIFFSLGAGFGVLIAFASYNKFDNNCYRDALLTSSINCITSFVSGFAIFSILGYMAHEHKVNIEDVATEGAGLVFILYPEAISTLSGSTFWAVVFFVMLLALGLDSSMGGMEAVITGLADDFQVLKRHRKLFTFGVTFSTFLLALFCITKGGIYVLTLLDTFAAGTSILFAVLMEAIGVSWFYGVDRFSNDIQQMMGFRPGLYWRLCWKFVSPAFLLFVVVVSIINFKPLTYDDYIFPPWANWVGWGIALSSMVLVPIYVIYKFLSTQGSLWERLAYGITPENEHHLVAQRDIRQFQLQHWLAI

## [O-][S@@+](Cc1cncs1)[C@@H](c1ccccc1)c1cccc(Br)c1 [(S, S)-CE-158, 5-(((S)-((S)-(3-bromophenyl)(phenyl)methyl)sulfinyl)methyl)thiazole]
  IC50: 12 µM
